In series [1] the test system is MCF7. In words: Phototoxicity against human MCF7 cells assessed as reduction in cell viability preincubated for 30 mins followed by 1.25 J/cm2 UV light irradiation measured after 48 hrs by MTT assay. It is filed as functional, cell-based. Particulars: MCF7, light or radiation study.
A short description of series [2]: Dark toxicity against human MCF7 cells assessed as reduction in cell viability after 72 hrs by MTT assay. It is filed as cell-based.
Series [3] deals with MCF7. In words: Phototoxic index, ratio of CC50 for human MCF7 cells under dark condition to EC50 for human MCF7 cells under UV light irradiated condition.
Series [4] relates to Jurkat. In words: Phototoxicity against human Jurkat cells assessed as reduction in cell viability preincubated for 30 mins followed by 1.25 J/cm2 UV light irradiation measured after 48 hrs by MTT assay. It counts as functional, cell-based. Particulars: light or radiation study.
Series [5] can be described thus: Dark toxicity against human Jurkat cells assessed as reduction in cell viability after 72 hrs by MTT assay. It is filed as cell-based.
The subject of series [6] is Jurkat. The series can be described thus: Phototoxic index, ratio of CC50 for human Jurkat cells under dark condition to EC50 for human Jurkat cells under UV light irradiated condition.
In series [7] the test system is K562. In words: Phototoxicity against human K562 cells assessed as reduction in cell viability preincubated for 30 mins followed by 1.25 J/cm2 UV light irradiation measured after 48 hrs by MTT assay. It is filed as functional, cell-based. Particulars: K562, light or radiation study.
Series [8] can be described thus: Dark toxicity against human K562 cells assessed as reduction in cell viability after 72 hrs by MTT assay. It is filed as cell-based.
Series [9] deals with K562. In words: Phototoxic index, ratio of CC50 for human K562 cells under dark condition to EC50 for human K562 cells under UV light irradiated condition.

Regarding `CCOC(=O)c1cc2c(n1C)-c1[nH]c(=O)c(S(=O)(=O)c3ccccc3)cc1CCC2`, the EC50 in the series on MCF7 [1] came out at 1 µM; in the series with Jurkat [4], 3.3 µM; in the series with K562 [7] it was 10.7 µM. The CC50 at 72 h in series [2], in series [5] and in series [8] was more than 20 µM throughout. For the same compound, the entries for the “Ratio CC50/EC50” value in the series on MCF7 [3], in the series on Jurkat [6] and in the series with K562 [9] were more than 20, more than 6.06 and more than 1.87, respectively.
Consider `CCOC(=O)c1cc2c(n1Cc1cccc(OC)c1)-c1[nH]c(=O)c(S(=O)(=O)c3ccccc3)cc1CCC2`, for which the EC50 with MCF7 [1] was found to be 2.58 µM; in the series with Jurkat [4], 0.24 µM; with K562 [7], 0.47 µM. For the same compound, the cytotoxic concentration (CC50) at 72 h in series [2], in series [5] and in series [8] was more than 20 µM each time. Besides, the results for the “Ratio CC50/EC50” value in the series with MCF7 [3], with Jurkat [6] and in the series on K562 [9] were more than 7.77, more than 83.33 and more than 42.55, respectively.
With `CCOC(=O)c1cc2c(n1Cc1ccccc1)-c1[nH]c(=O)c(S(=O)(=O)c3ccccc3)cc1CCC2`, the EC50 turned out to be 1.41 µM with MCF7 [1], 0.3 µM in the series on Jurkat [4] and 0.4 µM with K562 [7]. The cytotoxic concentration (CC50) at 72 h in series [2], in [5] and in series [8] was more than 20 µM throughout. Also, the “Ratio CC50/EC50” value is recorded as more than 14.22 in the series on MCF7 [3], more than 66.67 with Jurkat [6] and more than 50 in the series with K562 [9].
Take `Cn1ccc2c1-c1[nH]c(=O)c(S(=O)(=O)c3ccccc3)cc1CCC2`: the EC50 was 2.96 µM in the series on MCF7 [1], more than 20 µM with Jurkat [4] and more than 20 µM in the series on K562 [7]. For the same compound, the 50% cytotoxic concentration (CC50) at 72 h in [2], in series [5] and in series [8] was more than 20 µM throughout. Also, the “Ratio CC50/EC50” value in the series with MCF7 [3] was more than 6.77.
In the case of `COc1ccc(Cn2ccc3c2-c2[nH]c(=O)c(S(=O)(=O)c4ccccc4)cc2CCC3)cc1`, the EC50 was 4.23 µM in the series with MCF7 [1], 0.93 µM in the series with Jurkat [4] and 2.54 µM in the series with K562 [7]. The CC50 at 72 h in [2], in [5] and in series [8] was more than 20 µM each time. The “Ratio CC50/EC50” value with MCF7 [3] is more than 4.73; with Jurkat [6], more than 21.51; with K562 [9] it was more than 7.87.
Regarding `COc1nc2c(cc1S(=O)(=O)c1ccccc1)CCCc1ccn(C)c1-2`, the EC50 in the series on MCF7 [1] is 2.14 µM; with Jurkat [4], 1.96 µM; in the series on K562 [7], 5.76 µM. In addition, the CC50 at 72 h in series [2], in [5] and in [8] was more than 20 µM throughout. In addition, the entries for the “Ratio CC50/EC50” value with MCF7 [3], in the series on Jurkat [6] and with K562 [9] were more than 9.35, more than 10.2 and more than 3.47, respectively.
Take `CCOC(=O)c1cc2c(n1Cc1ccccc1OC)-c1[nH]c(=O)c(S(=O)(=O)c3ccccc3)cc1CCC2`: the values for the EC50 with MCF7 [1], in the series on Jurkat [4] and in the series on K562 [7] were 0.94 µM, 0.19 µM and 0.27 µM, respectively. The CC50 at 72 h in [2], in series [5] and in series [8] was more than 20 µM in each case. Further, the “Ratio CC50/EC50” value in the series on MCF7 [3] is listed as more than 21.36; with Jurkat [6] it was more than 105.26; in the series on K562 [9] it was more than 74.07.
Take `CCOC(=O)c1cc2c(n1C)-c1nc(OC)c(S(=O)(=O)c3ccccc3)cc1CCC2`: the EC50 with MCF7 [1] came out at 1.7 µM; with Jurkat [4] it was 0.25 µM; with K562 [7] it was 0.63 µM. In addition, the CC50 at 72 h in series [2], in series [5] and in series [8] was more than 20 µM each time. Besides, the “Ratio CC50/EC50” value was more than 11.76 with MCF7 [3], more than 80 in the series on Jurkat [6] and more than 31.75 in the series with K562 [9].
For the compound `COc1ccccc1Cn1ccc2c1-c1[nH]c(=O)c(S(=O)(=O)c3ccccc3)cc1CCC2`, the EC50 in the series with MCF7 [1] turned out to be 0.94 µM; with Jurkat [4], 1.9 µM; with K562 [7], 7.68 µM. Also, the 50% cytotoxic concentration (CC50) at 72 h in series [2], in series [5] and in [8] was more than 20 µM each time. Moreover, the “Ratio CC50/EC50” value in the series with MCF7 [3] is more than 21.23; with Jurkat [6], more than 10.53; in the series on K562 [9] it was more than 2.6.

These data come from ChEMBL document CHEMBL4004854, “Pyrrolo[3',2':6,7]cyclohepta[1,2-b]pyridines with potent photo-antiproliferative activity” (Eur J Med Chem, 2017).
